Entries after “also recorded” stand apart in the source; their conditions may differ. Blank lines part the entries; values can stand above or below the molecule they belong to.
Assays:
[1] = target: T1, hydroxyjasmonic acid sulfotransferase encoded by the AtST2a gene (Arabidopsis thaliana, UniProt Q8L5A7); test: Substrate specificity and kinetics of the AtST2a hydroxyjasmonic acid sulfotransferase; type: biochemical; details: structurally related compounds
T1 sequence (Q8L5A7 1-359): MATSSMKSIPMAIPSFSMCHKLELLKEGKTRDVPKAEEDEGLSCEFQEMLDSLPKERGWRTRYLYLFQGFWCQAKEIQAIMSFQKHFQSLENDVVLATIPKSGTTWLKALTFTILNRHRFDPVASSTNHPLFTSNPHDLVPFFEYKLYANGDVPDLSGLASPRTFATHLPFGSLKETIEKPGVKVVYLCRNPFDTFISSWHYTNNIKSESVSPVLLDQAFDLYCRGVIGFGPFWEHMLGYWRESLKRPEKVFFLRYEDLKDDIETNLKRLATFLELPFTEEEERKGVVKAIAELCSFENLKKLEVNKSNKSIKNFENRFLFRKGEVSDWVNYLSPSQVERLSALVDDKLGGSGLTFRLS
Description: (§1) SEQ ID NO 1 (FIG. 6; GenBank®: accession number NM_120783) corresponds to the gene AtST2a in Arabidopsis thaliana. SEQ ID NO 3 (FIG. 7) is an amino acid sequence deduced from SEQ ID NO 1. This amino acid sequence is of public domain and can be retrieved from GenBank®, accession number NM_120783. The AtST2a gene from Arabidopsis thaliana encodes a sulfotransferase that sulfonates 12-OHJA and 11-OHJA with high specificity.

[2] = system: transgenic Nicotiana tabacum plants (line 7) expressing AtST2a; test: Normalization experiment: restoring normal anther development in male sterile transgenic tobacco expressing AtST2a; type: in vivo; details: for restoration of the male sterile phenotype by exogenous application: transgenic tobacco overexpressing AtST2a, concentration not given
Method: The apex of T2 plants of line 7 was soaked daily in a solution containing either: 0.05% Tween20 in water (control), 0.05% Tween20 in water containing 50 μM MeJA or 0.05% Tween20 in water containing 100 μM 12-OHJA. The treatments were started approximately 7 days before the appearance of the first flower buds and lasted a total of 14 days. A minimum of 5 plants for each treatment were analyzed in this study.
In order to restore the phenotype, the apex of transgenic plants were soaked daily for 2 minutes in a solution containing 100 μM 12-OHJA dissolved in aqueous 0.05% TWEEN20. The application was started approximately 7 days prior to the appearance of the first flower bud and was continued for 7 days after the first flower appeared.

[3] = system: A. thaliana opr3 mutant deficient in JA biosynthesis; test: Restoring the male sterile phenotype of the opr3 mutant by exogenous application to the inflorescence; type: in vivo, Arabidopsis thaliana; details: data not shown
[4] = substrate: O=C(O)CC1CCC(=O)C1CC=CCCO; test: Substrate specificity and kinetics of the AtST2a hydroxyjasmonic acid sulfotransferase; type: biochemical, Arabidopsis thaliana; details: other: as substrate of the sulfotransferase; pH 7.5
Description: as §1

[5] = substrate: CC(O)C=CCC1C(=O)CCC1CC(=O)O; test: as above; type: biochemical, Arabidopsis thaliana; details: other: as substrate of the sulfotransferase; pH 7.5
Description: as §1

acceptance as substrate by the enzyme [1]: did not accept
Molecule: CC/C=C/CC1C(O)CCC1CC(=O)O (stereo not drawn) [cucurbic acid]

Molecule: CC/C=C\C[C@H]1C(=O)CC[C@@H]1CC(=O)O [JA, jasmonic acid]
restoration of the male sterile phenotype by exogenous application [2]: could be restored

Molecule: O=C(O)CC1CCC(=O)C1CC=CCCO (stereo not drawn) [12-OHJA, 3-Oxo-2-(5-hydroxy-2-pentenyl)-cyclopentane-1-acetic acid]
restoration of the male sterile phenotype [3]: restore the male sterile phenotype
restoration of normal anther development ([2]; 100 μM in aqueous 0.05% TWEEN20, apex of line 7 soaked daily for 2 minutes, 14 days): restoration of the mutant phenotype; also recorded: restored normal anther development
production of viable pollen ([2]; apex of transgenic plants treated for 14 days (FIG. 5)): production of viable pollen
restoration of the male sterile phenotype by exogenous application [2]: could be restored

acceptance as substrate by the enzyme [1]: did not accept
Molecule: CCCCC/C=C\C/C=C\C/C=C\C/C=C\CCCCO [arachidonyl alcohol]

B1: hydroxyjasmonic acid sulfotransferase encoded by the AtST2a gene (Arabidopsis thaliana) (protein)
chain: T1 sequence (Q8L5A7 1-359)
Km [4]: 11 µM
Km [5]: 60 µM
